Results reported in patent publication US11090323B2, “Pharmaceutical composition, methods for treating and uses thereof” (Boehringer Ingelheim International GmbH, priority 2013, dated 2021).

Columns and labels:
[1] = tested on: patients with T2DM and RI; assay: Phase III trial of empagliflozin as add-on to existing therapy in patients with T2DM and renal impairment; assay type: in vivo, human
Procedure: A Phase III trial investigated the efficacy and safety of empagliflozin (EMPA) as add-on to existing therapy for 52 weeks in patients with T2DM and RI. Patients with mild RI (eGFR [MDRD equation] ≥60 to <90 mL/min/1.73 m^2; n=290; mean age 62.6 years; mean BMI 31.5 kg/m^2) received EMPA 10 or 25 mg qd or placebo (PBO). Patients with moderate RI (eGFR ≥30 to <60 mL/min/1.73 m^2; n=374; mean age 64.9 years; mean BMI 30.2 kg/m^2) received EMPA 25 mg qd or PBO. The primary endpoint was change from baseline in HbA1c at week 24. Exploratory endpoints included changes from baseline in fasting plasma glucose (FPG), weight and blood pressure (BP) at week 24 (FIG. 1).

renal glucose absorption = assay: PK-PD nonlinear mixed-effects model of empagliflozin exposure vs urinary glucose excretion / renal glucose threshold; assay type: in vivo, human
Excerpt: Empagliflozin, a selective and potent SGLT2 inhibitor, reduces renal glucose reabsorption by lowering the renal threshold for glucose (RTG) leading to increased urinary glucose excretion (UGE) and decreased plasma glucose (PG) in patients with type 2 diabetes mellitus (T2DM). This analysis aimed to quantify the impact of empagliflozin on RTG by characterizing the relationship between empagliflozin exposure and UGE in patients with T2DM using nonlinear mixed-effects modeling.
A pharmacokinetic (PK)-pharmacodynamic (PD) model was developed using UGE, PG, PK and estimated glomerular filtration rate (eGFR) data from three Phase I/II trials (N=223; placebo, empagliflozin 1 to 100 mg once daily [QD]). The model assumed that when PG>RTG, UGE increased with increasing PG and eGFR; and when PG≤RTG slight glucose leakage into urine occurred (estimated as fraction reabsorbed [FRAC]). Reabsorption was estimated by a nonlinear function parameterized in terms of maximum reabsorbed glucose concentration (Gmax) and PG concentration to reach half maximum transport (Km). Maximum inhibitory effect (Imax) and half maximal inhibitory concentration (IC50) described inhibition of renal glucose absorption. RTG was calculated as the difference between maximum reabsorption (including drug effect) and KM. The model was evaluated via bootstrap and external predictive check of an empagliflozin renal impairment study.

[2] = tested on: patients with T2DM and CKD stage 3A, 3B and 4; assay: Phase III trial of empagliflozin as add-on to existing therapy in patients with T2DM and CKD stage 3A, 3B and 4; assay type: in vivo, human; conditions: EMPA 25 mg; for AEs consistent with urinary tract infection, patients / AEs consistent with volume depletion, patients / adverse events (AEs) reported, patients: 52 weeks
Procedure: A Phase III trial investigated the efficacy and safety of empagliflozin (EMPA) as add-on to existing therapy for 52 weeks in patients with T2DM and CKD stage 3A, 3B and 4. Patients with CKD stage 3A (eGFR [MDRD equation] ≥45 to <60 ml/min/1.73 m^2; n=180; mean [SD] age 64.5 [8.0] years; mean [SD] BMI 30.5 [5.2] kg/m^2), CKD stage 3B (eGFR ≥30 to <45 ml/min/1.73 m^2; n=194; mean [SD] age 65.2 [9.0] years; mean [SD] BMI 30.0 [5.4] kg/m^2) or CKD stage 4 (eGFR ≥15 to <30 ml/min/1.73 m^2; n=74; mean [SD] age 64.1 [11.1] years; mean [SD] BMI 30.4 [5.6] kg/m^2) received EMPA 25 mg qd or PBO for 52 weeks. In exploratory analyses, we assessed the long-term efficacy and safety of EMPA, including changes from baseline in HbA1c, fasting plasma glucose (FPG), weight and systolic and diastolic blood pressure (SBP and DBP) at week 52 (FIG. 7).

the diabetic = conditions: metformin on its own; cited from earlier work

OC[C@H]1O[C@@H](c2ccc(Cl)c(Cc3ccc(O[C@H]4CCOC4)cc3)c2)[C@H](O)[C@@H](O)[C@@H]1O [empagliflozin, 1-chloro-4-(β-D-glucopyranos-1-yl)-2-[4-((S)-tetrahydrofuran-3-yloxy)-benzyl]benzene]
AEs consistent with genital infection, patients ([1]; EMPA 10 mg qd): 6.1%
AEs consistent with urinary tract infection, patients ([1]; EMPA 10 mg qd): 10.2%
Hypoglycemia (plasma glucose ≤70 mg/dL and/or requiring assistance), patients ([1]; EMPA 10 mg qd): 23.5%
adverse events (AEs) reported, patients ([1]; EMPA 10 mg qd, week 24, all patients): 79.6%
AEs consistent with genital infection, patients ([1]; EMPA 25 mg qd): 2.5%
AEs consistent with urinary tract infection, patients ([1]; EMPA 25 mg qd): 9.0%
Hypoglycemia (plasma glucose ≤70 mg/dL and/or requiring assistance), patients ([1]; EMPA 25 mg qd): 22.1%
adverse events (AEs) reported, patients ([1]; EMPA 25 mg qd, week 24, all patients incl. exploratory severe RI group): 75.4%
difference to placebo for the adjusted mean change in HbA1c from baseline ([1]; Week 24, moderate A renal impairment): −0.46%
difference to placebo for the adjusted mean change in HbA1c from baseline ([1]; Week 24, moderate B renal impairment): −0.39%
tolerability ([1]; patients with T2DM and mild or moderate RI): well tolerated
BP ([1]; week 24, further analyses): significant reductions
FPG ([1]; week 24, further analyses): significant reductions
weight ([1]; week 24, further analyses): significant reductions
HbA1c vs PBO ([1]; week 24, mild or moderate RI): significantly reduced
IC50 (renal glucose absorption; Homo sapiens, model parameter estimate, three Phase I/II trials, N=223, read-out: IC50, half maximal inhibitory concentration for renal glucose absorption (95% CI)): 5.28 nM
RTG (renal threshold for glucose) (renal glucose absorption; dose 1 mg): 100.5 mg/dL
RTG (renal threshold for glucose) (renal glucose absorption; dose 5 mg): 43.8 mg/dL
RTG (renal threshold for glucose) (renal glucose absorption; dose 10 mg): 33.1 mg/dL
RTG (renal threshold for glucose) (renal glucose absorption; dose 25 mg): 26.0 mg/dL
Imax, maximum inhibitory effect on renal glucose absorption (95% CI) (renal glucose absorption; model parameter estimate, three Phase I/II trials, N=223): 0.559 (0.545, 0.607)
AEs consistent with urinary tract infection, patients ([2]; CKD stage 3A): 16.5%
AEs consistent with volume depletion, patients ([2]; CKD stage 3A): 4.4%
adverse events (AEs) reported, patients ([2]; CKD stage 3A): 86.8%
AEs consistent with urinary tract infection, patients ([2]; CKD stage 3B): 16.7%
AEs consistent with volume depletion, patients ([2]; CKD stage 3B): 3.1%
adverse events (AEs) reported, patients ([2]; CKD stage 3B): 80.2%
AEs consistent with urinary tract infection, patients ([2]; CKD stage 4): 18.9%
AEs consistent with volume depletion, patients ([2]; CKD stage 4): 5.4%
adverse events (AEs) reported, patients ([2]; CKD stage 4): 91.9%
DBP ([2]; week 52, CKD stage 3A): significantly reduced
FPG ([2]; week 52, CKD stage 3A): significantly reduced
HbA1c vs PBO ([2]; week 52, CKD stage 3A): significantly reduced
SBP ([2]; week 52, CKD stage 3A): significantly reduced
weight ([2]; week 52, CKD stage 3A): significantly reduced
FPG ([2]; week 52, CKD stage 3B): significantly reduced
HbA1c vs PBO ([2]; week 52, CKD stage 3B): significantly reduced
weight ([2]; week 52, CKD stage 3B): significantly reduced
BP ([2]; week 52, CKD stage 4): Reductions
FPG ([2]; week 52, CKD stage 4): Reductions
HbA1c ([2]; week 52, CKD stage 4): did not reduce
weight ([2]; week 52, CKD stage 4): Reductions

CN(C)C(=N)N=C(N)N [metformin]
average improvement in the HbA1c value (the diabetic): 1.0-1.5%
